Assay [1] has as its target pCDRI (ABC) efflux pump in S. cerevisiae YEM-1 (Candida albicans, UniProt P43071). Briefly: cell-based. The assay is classed as cell-based, C. albicans.
Assay [2] addresses pCDR2 (ABC) efflux pump in S. cerevisiae YEM-37 (Candida albicans, UniProt P78595). Briefly: cell-based. Type of assay: cell-based, C. albicans.
The target in assay [3] is pCgCDR (ABC) efflux pump in S. cerevisiae YEM-39 (Candida glabrata, UniProt Q6FK23). Description: cell-based. The assay is classed as cell-based, C. glabrata.
In assay [4] the target is pBEN (MF) efflux pump in S. cerevisiae YEM-2 (Candida albicans, UniProt P28873). Description: cell-based. Type of assay: cell-based, C. albicans.
Assay [5] addresses pFLU (MF) efflux pump in S. cerevisiae YEM-38 (Candida albicans, UniProt G1UB37). Briefly: cell-based. The assay is classed as cell-based, C. albicans.
In assay [6] the test system is pCgBEN (MF) efflux pump in S. cerevisiae YEM-40. Type of assay: cell-based, C. glabrata.
The subject of assay [7] is YEM 13 C. albicans BEN up. Briefly: microbe, parasite or virus in culture. Type of assay: cell-based. To be noted: YEM 13, 24 hrs, 80% inhibition; for MIC of compound in the presence of fluconazole (+): 1/8 × MIC of fluconazole.
Assay [8] concerns YEM 15 C. albicans, CDR1CDR2 up. Briefly: microbe, parasite or virus in culture. Type of assay: cell-based. The note with it: YEM 15, 24 hrs, 80% inhibition; for MIC of compound in the presence of fluconazole (+): 1/8 × MIC of fluconazole.
A further assay deals with YEM 53 C. krusei. Briefly: FEPI MIC with/without 1/8 fluconazole MIC at 24 hrs (Table 11). The assay is classed as cell-based.
The test system of assay [9] is YEM 17 C. glabrata, CgCDR up. The assay is classed as cell-based. The note with it: 24 hrs, 80% inhibition; for MIC of compound in the presence of fluconazole (+): 1/8 × MIC of fluconazole.
The next assay has as its system YEM 51 C. glabrata wt. Briefly: FEPI MIC with/without 1/8 fluconazole MIC at 24 hrs (Table 11). The assay is classed as cell-based.
For the next assay, the system named is YEM 30 C. albicans wt. Described as above. Type of assay: cell-based.
The test system of assay [10] is YEM 24 C. albicans ΔCDR1, ΔCDR2. Briefly: microbe, parasite or virus in culture. Type of assay: cell-based. The note with it: YEM 24, 24 hrs, 80% inhibition; for MIC of compound in the presence of fluconazole (+): 1/8 × MIC of fluconazole.
Assay [11] has as its system YEM 27 C. albicans ΔCDR1ΔCDR2 ΔBENΔFLU1. Description: microbe, parasite or virus in culture. The assay is classed as cell-based. The note with it: YEM 27, 24 hrs, 80% inhibition; for MIC of compound in the presence of fluconazole (+): 1/8 × MIC of fluconazole.
The test system of another assay is Aspergillus fumigatus. Briefly: FEPI MICs in combination with 1/4 the azole's MIC (Table 12). The assay is classed as cell-based. Details: FEPI MIC (alone): unit not given here. To be noted: for FEPI MIC with itraconazole, 60% Inh / FEPI MIC with itraconazole, 80% Inh: itraconazole 0.063 μg/ml (1/4 MIC); for FEPI MIC with ketoconazole, 60% Inh / FEPI MIC with ketoconazole, 80% Inh: ketoconazole 4 μg/ml (1/4 MIC); for FEPI MIC (alone): no azole, 35° C., CM Broth. As to the method: The combinations were tested against a series of Candida strain with known expression of efflux pumps or with complete deletion of all known pumps and Aspergillus fumigatus. Results are reported as minimum inhibitory concentration (MIC) of […] in the presence or absence of […]. A total of 27 distinct milbemycins were studied.

In assay [12] the test system is C. albicans YEM-15 (CDR1 & CDR2 overexpressor). Description: microbe, parasite or virus in culture. Type of assay: cell-based. The note with it: Candida albicans, read-out: Ketoconazole MIC.
Assay [13] concerns C. glabrata YEM-17 (CgCDR overexpressor). Description: microbe, parasite or virus in culture. Type of assay: cell-based. The note with it: Nakaseomyces glabratus, read-out: Ketoconazole MIC.
In another assay the test system is C. krusei YEM-71. Description: Broth dilution checkerboard, azoles and terbinafine with milbemycin α9 (Table 8). Type of assay: cell-based. To be noted: Pichia kudriavzevii, YEM71; YEM-71; alone; read-out: Ketoconazole MIC. A general note: Dilution methods test growth across graded concentrations, often in twofold steps.
[14] abbreviates: YEM-40 pCgBEN, fluconazole fixed at FLUhalf 2.8.

The results in this text go back to patent publication US6495591B1, “Fungal efflux pump inhibitors” (Essential Therapeutics, Inc., priority 1997, dated 2002).

≈ marks a conversion by molar mass, not a printed value. Read-outs that look alike come from different tables or passages of the source. Some results are limits rather than exact numbers.

Sequence of pCgCDR (ABC) efflux pump in S. cerevisiae YEM-39 (Q6FK23 whole entry): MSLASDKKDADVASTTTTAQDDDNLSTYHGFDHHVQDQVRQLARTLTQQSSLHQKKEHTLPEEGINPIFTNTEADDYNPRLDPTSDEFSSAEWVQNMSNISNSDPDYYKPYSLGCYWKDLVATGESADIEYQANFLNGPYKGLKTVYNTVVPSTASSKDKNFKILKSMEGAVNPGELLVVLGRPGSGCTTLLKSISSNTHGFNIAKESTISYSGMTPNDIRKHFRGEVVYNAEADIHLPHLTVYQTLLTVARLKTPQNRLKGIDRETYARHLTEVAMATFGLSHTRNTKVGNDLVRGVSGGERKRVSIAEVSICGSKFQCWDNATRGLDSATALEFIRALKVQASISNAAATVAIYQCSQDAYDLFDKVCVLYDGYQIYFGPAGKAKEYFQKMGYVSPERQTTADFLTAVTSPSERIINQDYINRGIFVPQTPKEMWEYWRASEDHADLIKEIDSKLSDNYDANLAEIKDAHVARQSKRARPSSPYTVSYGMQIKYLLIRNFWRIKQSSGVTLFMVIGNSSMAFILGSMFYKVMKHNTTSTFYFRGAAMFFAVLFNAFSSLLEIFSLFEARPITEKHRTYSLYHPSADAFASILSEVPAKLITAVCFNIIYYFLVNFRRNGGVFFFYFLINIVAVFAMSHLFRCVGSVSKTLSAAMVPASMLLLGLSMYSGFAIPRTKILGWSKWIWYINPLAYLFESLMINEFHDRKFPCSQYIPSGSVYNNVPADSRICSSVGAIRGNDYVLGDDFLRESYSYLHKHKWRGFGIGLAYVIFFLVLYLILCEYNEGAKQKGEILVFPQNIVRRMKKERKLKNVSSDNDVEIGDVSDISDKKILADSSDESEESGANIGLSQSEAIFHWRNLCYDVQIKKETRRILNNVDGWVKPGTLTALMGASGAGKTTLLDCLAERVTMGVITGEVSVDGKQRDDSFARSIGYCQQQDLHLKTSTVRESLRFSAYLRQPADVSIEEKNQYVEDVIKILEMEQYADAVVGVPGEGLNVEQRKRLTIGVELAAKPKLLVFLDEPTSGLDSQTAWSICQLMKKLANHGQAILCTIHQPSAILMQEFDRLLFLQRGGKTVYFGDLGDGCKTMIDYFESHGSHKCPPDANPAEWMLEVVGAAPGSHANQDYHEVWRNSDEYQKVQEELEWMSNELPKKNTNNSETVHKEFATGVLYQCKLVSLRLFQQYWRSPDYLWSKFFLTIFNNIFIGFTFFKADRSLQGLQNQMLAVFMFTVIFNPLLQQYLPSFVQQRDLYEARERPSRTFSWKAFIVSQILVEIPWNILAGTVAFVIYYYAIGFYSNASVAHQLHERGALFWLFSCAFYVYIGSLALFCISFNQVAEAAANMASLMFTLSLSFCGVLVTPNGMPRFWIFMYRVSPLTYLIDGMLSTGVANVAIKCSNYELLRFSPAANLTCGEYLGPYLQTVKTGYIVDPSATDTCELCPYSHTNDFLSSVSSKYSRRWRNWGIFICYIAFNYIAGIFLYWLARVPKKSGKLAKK
Sequence of pBEN (MF) efflux pump in S. cerevisiae YEM-2 (P28873 whole entry): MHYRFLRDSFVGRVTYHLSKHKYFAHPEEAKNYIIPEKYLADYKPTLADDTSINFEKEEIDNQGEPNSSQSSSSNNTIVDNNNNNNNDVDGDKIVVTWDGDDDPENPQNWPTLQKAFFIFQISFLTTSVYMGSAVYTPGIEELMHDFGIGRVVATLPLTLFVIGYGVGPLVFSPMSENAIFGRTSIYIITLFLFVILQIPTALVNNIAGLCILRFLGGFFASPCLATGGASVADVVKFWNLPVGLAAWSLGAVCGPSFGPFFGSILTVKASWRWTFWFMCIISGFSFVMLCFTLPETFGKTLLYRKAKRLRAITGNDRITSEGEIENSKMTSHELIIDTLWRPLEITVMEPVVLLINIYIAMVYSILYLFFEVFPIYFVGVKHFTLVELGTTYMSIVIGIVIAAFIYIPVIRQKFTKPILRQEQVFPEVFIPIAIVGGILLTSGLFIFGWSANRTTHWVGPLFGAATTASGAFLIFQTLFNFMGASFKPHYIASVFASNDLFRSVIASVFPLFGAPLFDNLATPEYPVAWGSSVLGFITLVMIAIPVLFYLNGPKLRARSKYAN
Sequence of pCDR2 (ABC) efflux pump in S. cerevisiae YEM-37 (P78595 whole entry): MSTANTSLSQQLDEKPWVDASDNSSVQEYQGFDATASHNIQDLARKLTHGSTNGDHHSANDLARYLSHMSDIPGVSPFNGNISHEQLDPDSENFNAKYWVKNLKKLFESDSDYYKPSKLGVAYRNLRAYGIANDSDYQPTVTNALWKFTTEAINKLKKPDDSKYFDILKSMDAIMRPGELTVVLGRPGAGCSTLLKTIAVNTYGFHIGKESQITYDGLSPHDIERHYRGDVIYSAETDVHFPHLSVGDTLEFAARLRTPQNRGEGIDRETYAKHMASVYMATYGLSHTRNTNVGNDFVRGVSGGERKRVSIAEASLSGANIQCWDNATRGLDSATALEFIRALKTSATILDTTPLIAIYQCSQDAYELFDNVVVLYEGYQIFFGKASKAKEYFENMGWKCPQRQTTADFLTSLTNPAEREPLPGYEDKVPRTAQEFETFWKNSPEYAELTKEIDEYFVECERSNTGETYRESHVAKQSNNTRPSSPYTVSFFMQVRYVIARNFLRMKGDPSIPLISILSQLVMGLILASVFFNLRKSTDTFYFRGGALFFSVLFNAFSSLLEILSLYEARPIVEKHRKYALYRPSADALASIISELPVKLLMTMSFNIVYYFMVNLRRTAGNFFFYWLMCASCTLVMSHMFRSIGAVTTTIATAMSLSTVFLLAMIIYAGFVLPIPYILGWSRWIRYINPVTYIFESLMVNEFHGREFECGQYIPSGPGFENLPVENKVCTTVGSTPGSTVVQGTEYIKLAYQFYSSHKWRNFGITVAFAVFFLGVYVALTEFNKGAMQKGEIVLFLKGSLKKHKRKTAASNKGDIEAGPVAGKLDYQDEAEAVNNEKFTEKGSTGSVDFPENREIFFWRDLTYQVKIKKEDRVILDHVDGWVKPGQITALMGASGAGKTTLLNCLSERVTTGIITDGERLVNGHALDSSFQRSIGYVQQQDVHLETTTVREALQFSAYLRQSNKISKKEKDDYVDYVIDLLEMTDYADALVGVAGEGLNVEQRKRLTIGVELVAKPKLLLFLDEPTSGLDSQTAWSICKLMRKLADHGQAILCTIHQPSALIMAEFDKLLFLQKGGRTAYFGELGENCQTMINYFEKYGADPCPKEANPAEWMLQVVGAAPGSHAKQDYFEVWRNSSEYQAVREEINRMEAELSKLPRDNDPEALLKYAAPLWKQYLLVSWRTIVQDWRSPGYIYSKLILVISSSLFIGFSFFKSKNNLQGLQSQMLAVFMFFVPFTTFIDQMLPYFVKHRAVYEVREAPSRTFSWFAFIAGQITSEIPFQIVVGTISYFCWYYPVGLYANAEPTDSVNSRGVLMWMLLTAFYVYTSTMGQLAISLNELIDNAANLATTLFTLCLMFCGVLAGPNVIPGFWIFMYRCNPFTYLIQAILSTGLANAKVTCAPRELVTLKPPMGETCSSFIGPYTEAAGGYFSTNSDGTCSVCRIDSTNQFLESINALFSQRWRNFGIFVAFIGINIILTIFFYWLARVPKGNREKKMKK
Sequence of pCDRI (ABC) efflux pump in S. cerevisiae YEM-1 (P43071 whole entry): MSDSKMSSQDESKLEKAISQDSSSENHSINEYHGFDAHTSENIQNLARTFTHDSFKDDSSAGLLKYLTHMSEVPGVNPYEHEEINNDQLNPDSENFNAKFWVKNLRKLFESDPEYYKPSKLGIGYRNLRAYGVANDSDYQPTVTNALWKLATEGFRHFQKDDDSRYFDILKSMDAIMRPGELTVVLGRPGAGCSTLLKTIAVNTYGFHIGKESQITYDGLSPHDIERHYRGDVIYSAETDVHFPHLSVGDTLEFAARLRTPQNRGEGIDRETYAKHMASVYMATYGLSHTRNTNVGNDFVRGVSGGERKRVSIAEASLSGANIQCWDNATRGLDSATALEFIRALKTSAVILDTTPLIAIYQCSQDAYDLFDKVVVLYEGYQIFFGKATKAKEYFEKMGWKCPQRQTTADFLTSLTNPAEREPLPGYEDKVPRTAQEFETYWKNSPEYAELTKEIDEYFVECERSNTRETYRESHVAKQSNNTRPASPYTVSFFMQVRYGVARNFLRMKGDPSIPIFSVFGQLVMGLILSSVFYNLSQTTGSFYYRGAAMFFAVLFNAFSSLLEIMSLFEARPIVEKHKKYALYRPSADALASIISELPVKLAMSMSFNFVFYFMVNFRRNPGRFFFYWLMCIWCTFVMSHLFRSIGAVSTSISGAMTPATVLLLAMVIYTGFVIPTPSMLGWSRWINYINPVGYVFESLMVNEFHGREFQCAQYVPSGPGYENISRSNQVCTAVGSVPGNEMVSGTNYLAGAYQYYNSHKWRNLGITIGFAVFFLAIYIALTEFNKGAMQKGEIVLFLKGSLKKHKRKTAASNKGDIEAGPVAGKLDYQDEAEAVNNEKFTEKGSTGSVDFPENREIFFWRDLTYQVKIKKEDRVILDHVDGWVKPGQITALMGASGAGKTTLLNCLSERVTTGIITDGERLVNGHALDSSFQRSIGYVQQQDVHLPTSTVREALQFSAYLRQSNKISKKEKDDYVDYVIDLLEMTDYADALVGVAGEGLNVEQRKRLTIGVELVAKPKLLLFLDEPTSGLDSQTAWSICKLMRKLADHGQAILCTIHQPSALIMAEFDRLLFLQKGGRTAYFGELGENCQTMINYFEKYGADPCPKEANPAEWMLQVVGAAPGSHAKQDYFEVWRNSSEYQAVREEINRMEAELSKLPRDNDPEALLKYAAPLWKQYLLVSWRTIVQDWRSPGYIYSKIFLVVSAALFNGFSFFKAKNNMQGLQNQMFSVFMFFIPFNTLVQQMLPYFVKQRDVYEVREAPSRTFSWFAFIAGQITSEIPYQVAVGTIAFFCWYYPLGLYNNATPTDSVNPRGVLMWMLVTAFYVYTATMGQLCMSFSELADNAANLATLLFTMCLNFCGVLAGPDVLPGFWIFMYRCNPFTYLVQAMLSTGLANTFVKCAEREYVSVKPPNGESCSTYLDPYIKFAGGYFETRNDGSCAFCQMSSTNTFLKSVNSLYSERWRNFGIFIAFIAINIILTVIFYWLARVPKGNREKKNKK

As a reminder, the IC50 is the concentration needed to halve the response being measured. Take `CC[C@H]1O[C@]2(CC[C@@H]1C)C[C@@H]1C[C@@H](C/C=C(\C)C[C@@H](C)/C=C/C=C3\CO[C@@H]4[C@H](O)C(C)=C[C@@H](C(=O)O1)[C@]34O)O2` [Compound 7, Milbemycin α3]: the 50% inhibitory concentration (IC50) was 0.921 µM in assay [1]; 14.7 µM in [2]; 29.5 µM in assay [3]; 29.5 µM in assay [4]; above 118 µM in assay [5]. In assay [6] (setting [14]), the “FEPIhalf (concentration needed to reduce activity of efflux pump by 50%)” value is recorded as above 64. Also, the MIC of compound in the presence of fluconazole (+) is above 64 µg/mL in assay [7]; 0.125 µg/mL in assay [8]; 16 µg/mL in the assay with YEM 53 C. krusei; above 64 µg/mL in [9]; above 64 µg/mL in the assay on YEM 51 C. glabrata wt; “≦0.03” in the assay on YEM 30 C. albicans wt. Also, the MIC of compound in the presence of fluconazole (+) in [10] and in assay [11] was above 64 µg/mL each time. The MIC of compound in the absence of fluconazole (−) in [7] is above 64 µg/mL; in [8] it was above 64 µg/mL; in the assay on YEM 53 C. krusei (YEM 53, 24 hrs, 80% inhibition) it was above 64 µg/mL; in assay [9] it was above 64 µg/mL; with YEM 51 C. glabrata wt (YEM 51, 24 hrs, 80% inhibition), above 64 µg/mL; in the assay with YEM 30 C. albicans wt (YEM 30, 24 hrs, 80% inhibition), above 64 µg/mL. The MIC of compound in the absence of fluconazole (−) in assay [10] and in [11] was above 64 µg/mL each time. The “FEPI MIC with fluconazole, 60% Inh” value in the assay on Aspergillus fumigatus is listed as above 64. Further, in the assay on Aspergillus fumigatus, the “FEPI MIC with fluconazole, 80% Inh” value is recorded as above 64. Also, the “FEPI MIC with itraconazole, 60% Inh” value in the assay on Aspergillus fumigatus (60% inhibition) is listed as above 64. Further, the “FEPI MIC with itraconazole, 80% Inh” value with Aspergillus fumigatus (80% inhibition) is reported as above 64. For the same compound, the “FEPI MIC with ketoconazole, 60% Inh” value in the assay with Aspergillus fumigatus (60% inhibition) is recorded as “≦0.063”. For the same compound, in the assay with Aspergillus fumigatus (80% inhibition), the “FEPI MIC with ketoconazole, 80% Inh” value was “≦0.063”. In addition, the “FEPI MIC (alone)” value in the assay with Aspergillus fumigatus (80% inhibition) is on record as above 64.
LL-F2849α oxime [Compound 18]: the “FEPIhalf (concentration needed to reduce activity of efflux pump by 50%)” value in assay [1] (YEM-1 pCDRI, fluconazole fixed at FLUhalf 5.6) is above 64; in assay [2] (YEM-37 pCDR2, fluconazole fixed at FLUhalf 1), above 64; in assay [3] (YEM-39 pCgCDR, fluconazole fixed at FLUhalf 4) it was above 64; in assay [4] (YEM-2 pBEN, fluconazole fixed at FLUhalf 5.6), above 64; in assay [5] (YEM-38 pFLU, fluconazole fixed at FLUhalf 2), above 64; in assay [6] it was above 64. The MIC of compound in the presence of fluconazole (+) was above 64 µg/mL in [7]; above 64 µg/mL in [8]; above 64 µg/mL in the assay on YEM 53 C. krusei (YEM 53, 1/8 × MIC of fluconazole, 24 hrs, 80% inhibition); above 64 µg/mL in assay [9]; above 64 µg/mL with YEM 51 C. glabrata wt (YEM 51, 1/8 × MIC of fluconazole, 24 hrs, 80% inhibition); “≦0.03” with YEM 30 C. albicans wt (YEM 30, 1/8 × MIC of fluconazole, 24 hrs, 80% inhibition). The MIC of compound in the presence of fluconazole (+) in assay [10] and in assay [11] was above 64 µg/mL each time. Further, the MIC of compound in the absence of fluconazole (−) in assay [7] is above 64 µg/mL; in [8], above 64 µg/mL; in the assay with YEM 53 C. krusei (YEM 53, 24 hrs, 80% inhibition) it was above 64 µg/mL; in assay [9], above 64 µg/mL; in the assay with YEM 51 C. glabrata wt (YEM 51, 24 hrs, 80% inhibition) it was above 64 µg/mL; in the assay on YEM 30 C. albicans wt (YEM 30, 24 hrs, 80% inhibition) it was above 64 µg/mL. Moreover, the MIC of compound in the absence of fluconazole (−) in [10] and in [11] was above 64 µg/mL throughout. In addition, the “FEPI MIC with fluconazole, 60% Inh” value in the assay on Aspergillus fumigatus (fluconazole 32 μg/ml (1/4 MIC), 60% inhibition) is recorded as 8. Also, the “FEPI MIC with fluconazole, 80% Inh” value in the assay on Aspergillus fumigatus (fluconazole 32 μg/ml (1/4 MIC), 80% inhibition) is listed as above 64. The “FEPI MIC with itraconazole, 60% Inh” value with Aspergillus fumigatus (60% inhibition) is above 64. For the same compound, the “FEPI MIC with itraconazole, 80% Inh” value in the assay on Aspergillus fumigatus (80% inhibition) is above 64. Also, in the assay on Aspergillus fumigatus (60% inhibition), the “FEPI MIC with ketoconazole, 60% Inh” value came out at 0.125. Besides, the “FEPI MIC with ketoconazole, 80% Inh” value with Aspergillus fumigatus (80% inhibition) amounted to 0.125. Moreover, the “FEPI MIC (alone)” value with Aspergillus fumigatus (80% inhibition) was above 64.
Turning to `CC(=O)N1CCN(c2ccc(OCC3COC(Cn4ccnc4)(c4ccc(Cl)cc4Cl)O3)cc2)CC1` (centres unmarked) [Ketoconazole, ketoconazole, reference compound], the MIC stood at 1 µg/mL (≈ 1.88 µM) in assay [12], 2 µg/mL (≈ 3.76 µM) in assay [13] and 2 µg/mL in the assay with C. krusei YEM-71.
`CC1=C[C@H]2C(=O)O[C@H]3C[C@@H](C/C=C(\C)C[C@@H](C)/C=C/C=C4\CO[C@H]([C@@H]1O)[C@@]42O)O[C@@]1(CC[C@H](C)[C@@H](C)O1)C3` [Compound 3, Milbemycin α1]: the IC50 in assay [1] is below 0.113 µM; in [2] it was 0.473 µM; in assay [3], 15.1 µM; in assay [4] it was 30.3 µM. For the same compound, in assay [6] (setting [14]), the “FEPIhalf (concentration needed to reduce activity of efflux pump by 50%)” value came to 32. The MIC of compound in the presence of fluconazole (+) in assay [7] was 32 µg/mL; in assay [8], “≦0.03”; in the assay on YEM 53 C. krusei it was 0.06 µg/mL; in assay [9], 4 µg/mL; with YEM 51 C. glabrata wt, 16 µg/mL; in the assay on YEM 30 C. albicans wt, “≦0.03”. Also, the MIC of compound in the presence of fluconazole (+) in assay [10] is above 64 µg/mL; in assay [11], 8 µg/mL. Moreover, the MIC of compound in the absence of fluconazole (−) in [7] was above 64 µg/mL; in assay [8], above 64 µg/mL; in the assay on YEM 53 C. krusei (YEM 53, 24 hrs, 80% inhibition), above 64 µg/mL; in assay [9], above 64 µg/mL; in the assay on YEM 51 C. glabrata wt (YEM 51, 24 hrs, 80% inhibition) it was above 64 µg/mL; in the assay with YEM 30 C. albicans wt (YEM 30, 24 hrs, 80% inhibition), above 64 µg/mL. Besides, the MIC of compound in the absence of fluconazole (−) in assay [10] was above 64 µg/mL; in assay [11] it was 8 µg/mL. In addition, the “FEPI MIC with fluconazole, 60% Inh” value in the assay with Aspergillus fumigatus was determined as 2. For the same compound, in the assay with Aspergillus fumigatus, the “FEPI MIC with fluconazole, 80% Inh” value was above 64. Besides, the “FEPI MIC with itraconazole, 60% Inh” value in the assay on Aspergillus fumigatus (60% inhibition) came out at 8. Also, in the assay on Aspergillus fumigatus (80% inhibition), the “FEPI MIC with itraconazole, 80% Inh” value is reported as 16. Further, in the assay with Aspergillus fumigatus (60% inhibition), the “FEPI MIC with ketoconazole, 60% Inh” value is on record as “≦0.063”. Further, the “FEPI MIC with ketoconazole, 80% Inh” value in the assay with Aspergillus fumigatus (80% inhibition) is reported as “≦0.063”. Moreover, in the assay with Aspergillus fumigatus (80% inhibition), the “FEPI MIC (alone)” value is listed as above 64.
